This is an account of results in patent publication US9187426B2, “Organic compounds” (Novartis AG, priority 2008, dated 2015).

For orientation: melting point means the temperature of the solid-liquid transition. Regarding `O=C(Nc1cc(-c2nc3ccccc3[nH]2)ccn1)c1ccccc1` [Example 4, N-(4-(1H-benzo[d]imidazol-2-yl)pyridin-2-yl)benzamide], the melting point was 145 to 146 °C.

As for `O=C(NCc1ccc(F)c(F)c1)c1ccnc(N2CCN(CC3CC3)C2=O)c1` [Example 15.12, 2-(3-(cyclopropylmethyl)-2-oxoimidazolidin-1-yl)-N-(3,4-difluorobenzyl)isonicotinamide], the melting point fell in the range of 134 to 136 °C.

As for `O=C(NCc1ccccc1)c1cc(O)nc(NC(=O)c2ccccc2)c1` [Example 8, 2-benzamido-N-benzyl-6-hydroxyisonicotinamide], the melting point is 257 °C (dec.).

Consider `O=C(NCc1cncs1)c1ccnc(-n2cnn(Cc3ccc(F)cc3)c2=O)c1` [Example 26.26, 2-(1-(4-Fluorobenzyl)-5-oxo-1H-1,2,4-triazol-4(5H)-yl)-N-(thiazol-5-ylmethyl)-isonicotinamide], for which the melting point is 181 to 183 °C.

`O=C(NCc1nccs1)c1ccnc(-n2cnn(Cc3ccc(F)c(F)c3)c2=O)c1` [Example 26.28, 2-(1-(3,4-Difluorobenzyl)-5-oxo-1H-1,2,4-triazol-4(5H)-yl)-N-(thiazol-2-ylmethyl)-isonicotinamide]: the melting point was in the range of 161 to 163 °C.

`O=C(NCc1ccccc1)c1ccnc(NC(=O)c2cccs2)c1` [Example 6.3, N-benzyl-2-(thiophene-2-carboxamido)isonicotinamide]: the melting point fell in the range of 160 to 162 °C.

`CS(=O)(=O)c1cccc(C(=O)Nc2cc(C(=O)NCc3ccccc3)ccn2)c1` [Example 6.13, N-benzyl-2-(3-(methylsulfonyl)benzamido)isonicotinamide] registered a melting point of 170 to 171 °C.

In the case of `CC(NC(=O)c1ccnc(N2CCN(Cc3ccc(F)cc3)C2=O)c1)c1ccccc1` (stereo not shown) [Example 26.6, 2-(3-(4-Fluorobenzyl)-2-oxoimidazolidin-1-yl)-N-(1-phenylethyl)-isonicotinamide], the melting point was in the range of 115 to 117 °C.

Consider `Cn1ccc(CNC(=O)c2ccnc(N3CCN(Cc4ccc(F)cc4)C3=O)c2)n1` [Example 14.6, 2-(3-(4-fluorobenzyl)-2-oxoimidazolidin-1-yl)-N-((1-methyl-1H-pyrazol-3-yl)methyl)isonicotinamide], for which the melting point fell in the range of 79 to 81 °C.

Molecule `O=C(NCc1cncs1)c1ccnc(N2CCN(Cc3ccc(F)cc3)C2=O)c1` [Example 14.1, 2-(3-(4-fluorobenzyl)-2-oxoimidazolidin-1-yl)-N-(thiazol-5-ylmethyl)isonicotinamide] returned a melting point of 148 to 150 °C.

With `NC(=O)c1ccnc(N2CCN(Cc3ccc(F)cc3)C2=O)c1` [Example 22, 2-(3-(4-fluorobenzyl)-2-oxoimidazolidin-1-yl)isonicotinamide], the melting point lay within 206 to 208 °C.

`Cc1cc(CNC(=O)c2ccnc(N3CCN(Cc4ccc(F)cc4)C3=O)c2)nn1C` [Example 14.11, N-((1,5-dimethyl-1H-pyrazol-3-yl)methyl)-2-(3-(4-fluorobenzyl)-2-oxoimidazolidin-1-yl)isonicotinamide] registered a melting point of 150 to 152 °C.

Molecule `O=C(NCc1nnco1)c1ccnc(N2CCN(Cc3ccc(F)cc3)C2=O)c1` [Example 26.4, N-((1,3,4-Oxadiazol-2-yl)methyl)-2-(3-(4-fluorobenzyl)-2-oxoimidazolidin-1-yl)isonicotinamide] displayed a melting point of 211 to 213 °C.

The molecule `Cc1ccc(CNC(=O)c2ccnc(NC(=O)c3ccccc3)c2)cc1` [Example 1.2, 2-benzamido-N-(4-methylbenzyl)isonicotinamide] registered a melting point of 135 to 138 °C.

As to `O=C(NCc1cccnc1)c1ccnc(N2CCN(Cc3ccc(OC(F)(F)F)cc3)C2=O)c1` [Example 26.16, 2-(2-Oxo-3-(4-(trifluoromethoxy)-benzyl)imidazolidin-1-yl)-N-(pyridin-3-ylmethyl)-isonicotinamide], the melting point fell in the range of 185 to 187 °C.

As for `O=C(NCc1ncco1)c1ccnc(N2CCN(Cc3ccc(F)cc3)C2=O)c1` [Example 14.4, 2-(3-(4-fluorobenzyl)-2-oxoimidazolidin-1-yl)-N-(oxazol-2-ylmethyl)isonicotinamide], the melting point lay within 148 to 150 °C.

Take `O=C(NCc1ccccc1)c1ccnc(NC(=O)c2ccccc2)c1` [Example 5, 2-benzamido-N-benzylisonicotinamide]: the melting point was in the range of 174 to 176 °C.

On to `O=C(NCc1ccccc1)c1ccnc(NC(=O)c2ccc(C(F)(F)F)cc2)c1` [Example 5.2, N-benzyl-2-(4-trifluoromethylbenzoylamino)isonicotinamide], for which the melting point was in the range of 181 to 183 °C.

`O=C(NC[C@H](O)c1ccccc1)c1ccnc(N2CCN(Cc3ccc(F)cc3)C2=O)c1` [Example 14.12, (R)-2-(3-(4-fluorobenzyl)-2-oxoimidazolidin-1-yl)-N-(2-hydroxy-2-phenylethyl)isonicotinamide] displayed a melting point of 97 to 99 °C.

Molecule `O=C(NCc1ccc(F)cc1)c1ccnc(N2CCN(Cc3ccncc3)C2=O)c1` [Example 15.16, N-(4-fluorobenzyl)-2-(2-oxo-3-(pyridin-4-ylmethyl)imidazolidin-1-yl)isonicotinamide] had a melting point of 161 to 163 °C.

`O=C(Nc1cc(-c2nc(Cc3ccccc3)no2)ccn1)c1ccccc1` [Example 12, N-[4-(3-benzyl-[1,2,4]oxadiazol-5-yl)-pyridin-2-yl]benzamide] came in with a melting point of 150 to 151 °C.

As for `N#Cc1ccc(C(=O)Nc2cc(C(=O)NCc3ccccc3)ccn2)cc1` [Example 6.10, N-benzyl-2-(4-cyanobenzamido)isonicotinamide], the melting point is 180 to 181 °C.

On to `O=C(NCCC1CC1)c1ccnc(N2CCN(Cc3ccc(F)cc3)C2=O)c1` [Example 15.7, N-(2-cyclopropylethyl)-2-(3-(4-fluorobenzyl)-2-oxoimidazolidin-1-yl)isonicotinamide], for which the melting point fell in the range of 123 to 125 °C.

`COc1ccccc1C(=O)Nc1cc(C(=O)NCc2ccccc2)ccn1` [Example 6.6, N-benzyl-2-(2-methoxybenzamido)isonicotinamide] came in with a melting point of 205 to 207 °C.

Molecule `O=C(NCc1cc(-c2ccccc2)on1)c1ccnc(N2CCN(Cc3ccc(F)cc3)C2=O)c1` [Example 26.10, 2-(3-(4-Fluorobenzyl)-2-oxoimidazolidin-1-yl)-N-((5-phenylisoxazol-3-yl)methyl)-isonicotinamide] showed a melting point of 199 to 201 °C.

Turning to `O=C(NCc1ccccc1)c1ccnc(-n2ccc(-c3ccccc3)cc2=O)c1` [Example 17, N-benzyl-2-(2-oxo-4-phenylpyridin-1(2H)-yl)isonicotinamide], the melting point was 162 to 163 °C.

Regarding `Cc1nn(C)c(C)c1CNC(=O)c1ccnc(N2CCN(Cc3ccc(F)cc3)C2=O)c1` [Example 14.7, 2-(3-(4-fluorobenzyl)-2-oxoimidazolidin-1-yl)-N-((1,3,5-trimethyl-1H-pyrazol-4-yl)methyl)isonicotinamide], the melting point is 179 to 181 °C.

The molecule `O=C(NCc1ccc(F)cc1)c1ccnc(N2CCN(Cc3ccc(C(F)(F)F)cc3)C2=O)c1` [Example 26.2, N-(4-Fluorobenzyl)-2-(2-oxo-3-(4-(trifluoromethyl)benzyl)imidazolidin-1-yl)isonicotinamide] registered a melting point of 168 to 170 °C.

`O=C(NCc1ccccc1)c1ccnc(-n2cnn(Cc3ccc(F)cc3)c2=O)c1` [Example 16, N-benzyl-2-(1-(4-fluorobenzyl)-5-oxo-1H-1,2,4-triazol-4(5H)-yl)isonicotinamide]: the melting point is 173 to 175 °C.

The molecule `O=C(NCc1ccccc1)c1ccnc(NC(=O)c2ccc(F)cc2)c1` [Example 6.14, N-benzyl-2-(4-fluorobenzamido)isonicotinamide] came in with a melting point of 170 to 171 °C.

`O=C(NCc1ccccn1)c1cc(N2CCN(Cc3ccc(F)cc3)C2=O)nc2ccccc12` [Example 26.8, 2-(3-(4-Fluorobenzyl)-2-oxoimidazolidin-1-yl)-N-(pyridin-2-ylmethyl)quinoline-4-carboxamide]: the melting point was in the range of 161 to 163 °C.

With `O=C(NCc1ccccc1)c1ccnc(NC(=O)c2ccccc2F)c1` [Example 6, N-benzyl-2-(2-fluorobenzamido)isonicotinamide], the melting point was 175 to 176 °C.

As to `O=C(NCc1ccccc1)c1ccnc(NC(=O)c2cccc(F)c2)c1` [Example 6.1, N-benzyl-2-(3-fluorobenzamido)isonicotinamide], the melting point was in the range of 140 to 143 °C.

In turn, `O=C(NCc1ccc(F)c(F)c1)c1ccnc(N2CCN(Cc3ccccn3)C2=O)c1` [Example 15.18, N-(3,4-difluorobenzyl)-2-(2-oxo-3-(pyridin-2-ylmethyl)imidazolidin-1-yl)isonicotinamide] yielded a melting point of 143 to 145 °C.

For `O=C(NCc1ccc(F)cc1)c1ccnc(N2CCN(Cc3ccc(F)cc3F)C2=O)c1` [Example 15.22, 2-(3-(2,4-difluorobenzyl)-2-oxoimidazolidin-1-yl)-N-(4-fluorobenzyl)isonicotinamide], the melting point is 171 to 173 °C.

With `CCCc1c[nH]c(-c2ccnc(NC(=O)c3ccccc3)c2)n1` [Example 10.1, N-(4-(4-propyl-1H-imidazol-2-yl)pyridin-2-yl)benzamide], the melting point lay in the range of 95 to 97 °C.

For the molecule `O=C(NCc1cccnc1)c1ccnc(N2CCN(Cc3ccc(F)cc3)C2=O)c1` [Example 15.1, 2-(3-(4-fluorobenzyl)-2-oxoimidazolidin-1-yl)-N-(pyridin-3-ylmethyl)isonicotinamide], the melting point lay in the range of 153 to 155 °C.

Turning to `Cc1nc(CNC(=O)c2ccnc(N3CCN(Cc4ccc(F)cc4)C3=O)c2)no1` [Example 26.7, 2-(3-(4-Fluorobenzyl)-2-oxoimidazolidin-1-yl)-N-((5-methyl-1,2,4-oxadiazol-3-yl)methyl)-isonicotinamide], the melting point was 163 to 165 °C.

`O=C(NCc1ccccc1)c1ccnc(N2CCN(Cc3ccc(F)cc3)C2=O)c1` [Example 15, N-benzyl-2-(3-(4-fluorobenzyl)-2-oxoimidazolidin-1-yl)isonicotinamide] registered a melting point of 167 to 169 °C.

For `O=C(NCc1ccc(F)cc1)c1ccnc(N2CCN(Cc3ccc(F)c(F)c3)C2=O)c1` [Example 15.20, 2-(3-(3,4-difluorobenzyl)-2-oxoimidazolidin-1-yl)-N-(4-fluorobenzyl)isonicotinamide], the melting point fell in the range of 165 to 167 °C.
